The test system of series [1] is liver stage P. berghei ANKA GFP-Luc-SMcon sporozoites. The arrangement: method as in ref 2 (supplement; main text 48). The settings on record: ref 2 (supplement; main text 48), cited from earlier work; for IC50: 48 h, ± SD.
A further series has as its system HepG2. The following applies: cited from earlier work.
Series [2] deals with P. falciparum NF54. More on the design: method as in ref 4 (supplement; main text 62). The settings on record: Table S2, ± SEM; ref 4 (supplement; main text 62); read-out: Antimalarial activities IC50 NF54; cited from earlier work.
Series [3] concerns P. falciparum K1. The arrangement: method as in ref 4 (supplement; main text 62). The settings on record: Table S2, ± SEM; ref 4 (supplement; main text 62); read-out: Antimalarial activities IC50 K1; cited from earlier work.
For series [4], the system named is P. falciparum W2. The arrangement: method as in ref 4 (supplement; main text 62). The following applies: Table S2, ± SEM; ref 4 (supplement; main text 62); read-out: Antimalarial activities IC50 W2; cited from earlier work.
The subject of series [5] is early stage (>90% stage I-III) P. falciparum NF54 gametocytes. The settings on record: cited from earlier work.
Series [6] deals with late stage (>90% stage IV and V) P. falciparum NF54 gametocytes. The settings on record: cited from earlier work.
For series [7], the system named is P. falciparum W2. More on the design: method as in ref 5 (supplement; main text 63). The following applies: CQ resistant; ref 5 (supplement; main text 63); read-out: Antimalarial activities IC50 W2; cited from earlier work.
The subject of a further series is P. falciparum 7G8. The arrangement: method as in ref 5 (supplement; main text 63). The settings on record: CQ resistant; ref 5 (supplement; main text 63); read-out: Antimalarial activities IC50 7G8; cited from earlier work.
The subject of the next series is P. falciparum TM93-C1088. More on the design: method as in ref 5 (supplement; main text 63). The following applies: atovaquone and CQ resistant; ref 5 (supplement; main text 63); read-out: Antimalarial activities IC50 TM93-C1088; cited from earlier work.
A further series deals with P. falciparum TM91-C235. The arrangement: method as in ref 5 (supplement; main text 63). The settings on record: CQ and mefloquine resistant; ref 5 (supplement; main text 63); read-out: Antimalarial activities IC50 TM91-C235; cited from earlier work.
A further series concerns P. falciparum TM-C2B. More on the design: method as in ref 5 (supplement; main text 63). The settings on record: atovaquone and CQ resistant; ref 5 (supplement; main text 63); read-out: Antimalarial activities IC50 TM-C2B; cited from earlier work.
Another series concerns murine cerebral malaria. The arrangement: method as in PMID 20691118. The following applies: prescribed low dose levels; cited from earlier work.
Series [8] in a line: Preliminary PK assessment in the murine model (toxicity). Format: in vivo. The source says: Overall, artemiside, artemisone, and the arylurea are the frontrunners in terms of global efficacies and relatively low toxicities in vitro. However, expression of therapeutic efficacy depends not only on biological activity but also on pharmacokinetic (PK) properties. This becomes important for the envisaged drug combinations ([67]). We report here on the in vitro absorption, distribution, metabolism, and excretion (ADME) properties and PK measurement in a murine model of the compounds of Fig. 2. […] The data are directly compared to those of DHA and artemether. An evaluation of the compounds to be taken forward is then presented.

Series [9] concerns P. falciparum NF54. More on the design: method as in ref 1 and 2 (supplement; main text 47, 48). The following applies: Table S1, ± SEM; ref 1 and 2 (supplement; main text 47, 48); cited from earlier work.
In series [10] the test system is P. falciparum K1. More on the design: method as in ref 1 and 2 (supplement; main text 47, 48). The following applies: Table S1, ± SEM; ref 1 and 2 (supplement; main text 47, 48); cited from earlier work.
Series [11] concerns P. falciparum W2. The arrangement: method as in ref 1 and 2 (supplement; main text 47, 48). The following applies: Table S1, ± SEM; ref 1 and 2 (supplement; main text 47, 48); cited from earlier work.
The subject of series [12] is Chinese hamster ovary (CHO) cells. The settings on record: cited from earlier work.
The next series has as its system P. falciparum D6. More on the design: method as in ref 5 (supplement; main text 63). The settings on record: CQ sensitive; ref 5 (supplement; main text 63); read-out: Antimalarial activities IC50 D6; cited from earlier work.
Details of series [13]: method as in PMID 25759576. The settings on record: i.v., mouse; cited from earlier work.
On the set-up of series [14]: method as in PMID 25759576. The settings on record: p.o., mouse; cited from earlier work.
The mark [15] stands for this setting: Table S3, ± SEM, ref 1 and 2 (supplement; main text 47, 48), read-out: Early Stage (EG, Luc 48 h) IC50.
Where [16] appears, read: Table S3, ± SEM, ref 1 and 2 (supplement; main text 47, 48), read-out: Late Stage (LG, Luc 72 h) IC50.

SMILES strings stand for the structures. Where two headings read alike, the source gives them in different places. Bounds are passed on as bounds.

In the case of `COc1ccc(C[C@H](N)C(=O)N[C@H]2[C@@H](O)[C@H](n3cnc4c(N(C)C)ncnc43)O[C@@H]2CO)cc1` [Puromycin], the half-inhibitory concentration (IC50) in series [1] is 22.7 ± 4.53 nM. In addition, the Maximum inhibition % in [1] (at 5 µM) was 110±4.24%. Further, the EC50 with HepG2 is 117 nM.
With `C[C@H]1[C@H](OC(=O)CCC(=O)O)O[C@@H]2O[C@@]3(C)CC[C@H]4[C@H](C)CC[C@@H]1[C@@]24OO3` [Artesunate 4, artesunate], the half-maximal inhibitory concentration (IC50) was 3 ± 0.29 nM in the series with P. falciparum NF54 [2]; 3.26 ± 0.2 nM in the series with P. falciparum K1 [3]; 2.4 ± 0.2 nM in the series on P. falciparum W2 [4]; 62.8 ± 3.14 nM in series [5] (Table S4, ± SEM, n = 3, ref 4 (supplement; main text 62), read-out: Early stage IC50 (Luciferase 48 h)); 171 nM in [6] (Table S4, n = 1, ref 4 (supplement; main text 62), read-out: Late stage IC50 (Luciferase 72 h)); 3 ± 1.6 nM in the series on P. falciparum W2 [7]. The IC50 with P. falciparum 7G8 is 1.5 ± 0.2 nM; in the series on P. falciparum TM93-C1088, 1.4 ± 0.1 nM; in the series with P. falciparum TM91-C235, 2.9 ± 1.4 nM; in the series with P. falciparum TM-C2B it was 2.5 ± 0.5 nM. In addition, the “Cure of murine cerebral malaria” value in the series with murine cerebral malaria is listed as “no cure”.
With `OC(c1cc(C(F)(F)F)nc2c(C(F)(F)F)cccc12)C1CCCCN1` (stereo not drawn) [Mefloquine MFQ, Mefloquine], the IC50 with P. falciparum 7G8 was 5.4 ± 1.7 nM; in the series with P. falciparum TM93-C1088, 16 ± 5 nM; with P. falciparum TM91-C235 it was 107 ± 41 nM; in the series with P. falciparum TM-C2B, 130 ± 51 nM.
Regarding `C[C@H]1[C@H](Nc2ccc(F)cc2)O[C@@H]2O[C@@]3(C)CC[C@H]4[C@H](C)CC[C@@H]1[C@@]24OO3` [Arylamine 8], the “Toxicity in preliminary PK assessment” value in series [8] was “untoward toxicity”. Further, the IC50 in the series on P. falciparum NF54 [9] was 1.3 ± 0.6 nM; in the series with P. falciparum K1 [10], 0.64 ± 0.1 nM; in the series on P. falciparum W2 [11], 3 ± 1 nM; in series [5] (setting [15]) it was 38.2 ± 9 nM; in series [6] (setting [16]) it was 16.4 ± 6.38 nM. Also, the EC50 in series [12] (read-out: Cytotoxicity EC50 CHO, MTT, ±SD, ref 1 and 2 (supplement; main text 47, 48)) is 2900 ± 1400 nM.
Consider `O=C1C(O)=C([C@H]2CC[C@H](c3ccc(Cl)cc3)CC2)C(=O)c2ccccc21` [Atovaquone], for which the half-inhibitory concentration (IC50) was 2.52 ± 0.997 nM in [1]; 3.1 ± 0.9 nM in the series with P. falciparum 7G8; 18800 nM in the series on P. falciparum TM93-C1088; 2.2 ± 0.7 nM in the series with P. falciparum TM91-C235; 31800 nM in the series on P. falciparum TM-C2B. In addition, the Maximum inhibition % in [1] (at 0.5 µM) was 94.85±2.76%. The EC50 in the series on HepG2 is over 250 nM.
Consider `CN(C)c1ccc2nc3ccc(=[N+](C)C)cc-3sc2c1` [Methylene Blue, reference compound], for which the IC50 in the series with P. falciparum NF54 [9] was 5 ± 0.8 nM; in the series on P. falciparum K1 [10], 6.45 ± 0.3 nM; in the series on P. falciparum W2 [11] it was 5.13 ± 0.31 nM; in series [5] (setting [15]) it was 95 nM; in series [6] (setting [16]) it was 143 nM. In [12], the EC50 was 52600 ± 4500 nM.
For the molecule `CCN(CC)CCCC(C)Nc1ccnc2cc(Cl)ccc12` (stereo not drawn) [Chloroquine], the IC50 with P. falciparum NF54 [9] was 10 ± 3 nM; with P. falciparum K1 [10], 154 ± 14 nM; in the series with P. falciparum D6, 16 ± 2 nM; in the series on P. falciparum W2 [7], 195 ± 70 nM; in the series on P. falciparum 7G8 it was 84 ± 18 nM; with P. falciparum TM93-C1088, 360 ± 38 nM. Further, the IC50 is 70 ± 12 nM in the series with P. falciparum TM91-C235 and 95 ± 23 nM in the series on P. falciparum TM-C2B.
With `COc1cc(C)c2c(Oc3cccc(C(F)(F)F)c3)c(OC)cc(NC(C)CCCN)c2n1` (stereo not drawn) [Tafenoquine], in series [13], the AUC is 2,363 ± 146 min/μmol/liter, the CLint was 1.84 mL/min/kg, the V was 2.34 ± 0.0 L/kg and the t1/2 is listed as 43.7 ± 1.5 h. In [14], the AUC is on record as 11,368 ± 1,232 min/μmol/liter, the Cmax was 3.06 ± 0.37 µM, the F is 55 ± 2% and the time to peak (Tmax) is on record as 9.0 ± 1.0 h.

As a reminder, the IC50 is the concentration that inhibits the measured activity by half. One may read the EC50 as the midpoint of the concentration-response curve. One may read the Cmax as the peak of the concentration-time curve. One may read the Tmax as the time from dosing to the highest level.

Source of the values: publication PMC8284440, “Toward New Transmission-Blocking Combination Therapies: Pharmacokinetics of 10-Amino-Artemisinins and 11-Aza-Artemisinin and Comparison with Dihydroartemisinin and Artemether” (Antimicrobial Agents and Chemotherapy, 2021).
